Results taken from patent publication US20200237905A1, “COMBINATION THERAPY WITH A BET INHIBITOR, A BCL-2 INHIBITOR AND AN ANTI-CD20 ANTIBODY” (Hoffmann-La Roche Inc., priority 2017, published 2020).

Experiments:
[1] = system: WSU-DLCL2 xenografts (CD20+); experiment: In vivo antitumor efficacy against WSU-DLCL2 xenografts, rituximab study (FIG. 3); parameters: species or system human; details: for median tumor volume / npTCR (non-parametric Treatment to Control Ratio) / Tumor free mice: rituximab 10 mg/kg; for median tumor volume: venetoclax 100 mg/kg, RG6146 30 mg/kg; for TGI % (tumor growth inhibition): rituximab 10 mg/kg once weekly, venetoclax 100 mg/kg po and RG6146 30 mg/kg ip days 11-17; for npTCR (non-parametric Treatment to Control Ratio) / Tumor free mice: venetoclax 100 mg/kg po, RG6146 30 mg/kg ip; for Tumor free mice: tumor free mice / mice in group
Protocol: (§1) Antibody buffer included histidine. Antibody solution was diluted appropriately in buffer from stock prior injections. BET inhibitor RG6146 was provided as powder from Roche, Basel, Switzerland and resuspended prior to use. Bcl-2 inhibitor GDC-0199 was provided by Genentech, South San Francisco, USA and formulated prior to use.
(§2) The original WSU-DLCL2 human B cell NHL cell line (DLBCL) was purchased from DSMZ (Braunschweig, Germany). Expansion of tumor cells for the transplantation was done by the TAP CompacT CellBase Cell Culture Roboter according to the protocol. Tumor cell line was routinely cultured in RPMI 1640 medium, FCS 10% and L-Glutamin 2 mM at 37° C. in a water-saturated atmosphere at 5% CO2. Culture passage was performed with trypsin/EDTA 1× splitting twice/week and passage 3 used for transplantation.
(§3) Female SCID beige mice, age 6-7 weeks at arrival, maintained under specific-pathogen-free condition with daily cycles of 12 h light/12 h darkness according to committed guidelines. Experimental study protocol was reviewed and approved by local government. After arrival animals were maintained in animal facility for one week to get accustomed to new environment and for observation. Continuous health monitoring was carried out on regular basis. Diet food and autoclaved water were provided ad libitum.
(§4) Animals were controlled daily for clinical symptoms and detection of adverse effects. For monitoring throughout the experiment body weight of animals was documented.
(§5) The corresponding vehicle was administered on the same days. BET inhibitor RG6146 ip treatment at 30 mg/kg was done as single agent and in combination on days 11-17. Finally, bcl-2 inhibitor venetoclax (GDC-0199) was given orally at 100 mg/kg on days 11-17 as single agent and in combination.

[2] = system: WSU-DLCL2 xenografts (CD20+); experiment: In vivo antitumor efficacy against WSU-DLCL2 xenografts, obinutuzumab study (FIG. 1-2); parameters: species or system human; details: for median tumor volume: venetoclax 100 mg/kg, RG6146 30 mg/kg; for TGI % (tumor growth inhibition compared to control) / npTCR (non-parametric Treatment to Control Ratio) / Tumor free mice: Day 36; for TGI % (tumor growth inhibition compared to control): obinutuzumab 10 mg/kg once weekly; for Tumor free mice: tumor free mice / mice in group
Protocol: as §1, §2, §3, §4
as §5, with “CD20 antibody obinutuzumab was administered as single agent and in combination at 10 mg/kg ip once weekly on days 10, 17, 24 and 31. The” for “The”, “10-18, 21-25 and 28-32.” for “11-17.”, “Bcl-2” for “bcl-2”, “10-18, 21-25 and 28-32” for “11-17”
For the study shown in FIG. 1, WSU-DLCL2 human Diffuse Large B-cell Lymphoma (DLBCL) cells (CD20+) were s.c. inoculated with Matrigel onto female SCID beige mice. Tumor bearing mice were randomized 10 days later to the indicated study groups and compound treatment initiated. Tumor bearing animals were treated with vehicle control, with the BET inhibitor RG6146 at 30 mg/kg, with the anti-CD20 antibody obinutuzumab at 10 mg/kg or with Bcl-2 inhibitor venetoclax (GDC-0199) at 100 mg/kg as single agent. Additionally, three groups were treated with a dual combination of either RG6146 and venetoclax, or RG6146 and obinutuzumab or obinutuzumab and venetoclax. Finally, one study group received the triple combination of BET inhibitor RG6146, CD20 antibody obinutuzumab and Bcl-2 inhibitor venetoclax (GDC-0199). […] In constrast to this, the respective double combination regimens reached a tumor regrowth after about 20 days.

[3] = Day 11, s.c. xenograft in female SCID beige mice
[4] = Day 10 (randomisation, start of treatment), s.c. xenograft in female SCID beige mice, obinutuzumab 10 mg/kg
[5] = Day 14, female SCID beige mice, obinutuzumab 10 mg/kg
[6] = Day 17, female SCID beige mice, obinutuzumab 10 mg/kg
[7] = Day 21, female SCID beige mice, obinutuzumab 10 mg/kg
[8] = Day 24, female SCID beige mice, obinutuzumab 10 mg/kg
[9] = Day 28, female SCID beige mice, obinutuzumab 10 mg/kg
[10] = Day 31, female SCID beige mice, obinutuzumab 10 mg/kg
[11] = Day 36 (treatment ended day 32), female SCID beige mice, obinutuzumab 10 mg/kg
[12] = female SCID beige mice, venetoclax 100 mg/kg po, RG6146 30 mg/kg ip
[13] = obinutuzumab 10 mg/kg, venetoclax 100 mg/kg po, RG6146 30 mg/kg ip

Compound	median tumor volume [1, 3]	median tumor volume ([1]; Day 14, female SCID beige mice)	median tumor volume ([1]; Day 18, female SCID beige mice)	median tumor volume ([1]; Day 21, female SCID beige mice)	median tumor volume ([1]; Day 25, female SCID beige mice)	TGI % (tumor growth inhibition) ([1]; Day 28, female SCID beige mice)	median tumor volume ([1]; Day 28, female SCID beige mice)	npTCR (non-parametric Treatment to Control Ratio) ([1]; Day 28)	Tumor free mice ([1]; Day 28)	median tumor volume [2, 4]	median tumor volume [2, 5]	median tumor volume [2, 6]	median tumor volume [2, 7]	median tumor volume [2, 8]	median tumor volume [2, 9]	median tumor volume [2, 10]	median tumor volume [2, 11]	TGI % (tumor growth inhibition compared to control) [2, 12]	npTCR (non-parametric Treatment to Control Ratio) [2, 13]	Tumor free mice [2, 13]	other results
Cc1sc2c(c1C)C(c1ccc(Cl)cc1)=N[C@@H](CC(=O)NCCCN1CCN(C)CC1)c1nnc(C)n1-2 [RG6146, 2-[(S)-4-(4-Chloro-phenyl)-2,3,9-trimethyl-6H-1-thia-5,7,8,9a-tetraaza-cyclopenta[e]azulen-6-yl]-N-[3-(4-methyl-piperazin-1-yl)-propyl]-acetamide]	134 mm^3	161 mm^3	270 mm^3	245 mm^3	453 mm^3	30%	550 mm^3	0.71	0/9	137 mm^3	200 mm^3	185 mm^3	198 mm^3	387 mm^3	441 mm^3	489 mm^3	962 mm^3	46%	0.50	0/9	
CC1(C)CCC(CN2CCN(c3ccc(C(=O)NS(=O)(=O)c4ccc(NCC5CCOCC5)c([N+](=O)[O-])c4)c(Oc4cnc5[nH]ccc5c4)c3)CC2)=C(c2ccc(Cl)cc2)C1 [venetoclax, 4-(4-{[2-(4-chlorophenyl)-4,4-dimethylcyclohex-1-en-1-yl]methyl}piperazin-1-yl)-N-({3-nitro-4-[(tetrahydro-2H-pyran-4-ylmethyl)amino]phenyl}sulfonyl)-2-(1H-pyrrolo[2,3-b]pyridin-5-yloxy)benzamide]	136 mm^3	162 mm^3	267 mm^3	388 mm^3	497 mm^3	34%	554 mm^3	0.66	0/10	137 mm^3	202 mm^3	226 mm^3	212 mm^3	337 mm^3	494 mm^3	565 mm^3	906 mm^3	49%	0.53	0/10	
obinutuzumab: Type II anti-CD20 antibody, synonymous for GA101, formerly known as afutuzumab										136 mm^3	131 mm^3	112 mm^3	110 mm^3	111 mm^3	124 mm^3	132 mm^3	382 mm^3	84%	0.20	0/10	median tumor volume ([2]; Day 39 (follow-up after treatment), female SCID beige mice, obinutuzumab 10 mg/kg): 405 mm^3; median tumor volume ([2]; Day 43 (follow-up after treatment), female SCID beige mice, obinutuzumab 10 mg/kg): 700 mm^3; median tumor volume ([2]; Day 46 (follow-up after treatment), female SCID beige mice, obinutuzumab 10 mg/kg): 713 mm^3; median tumor volume ([2]; Day 50 (follow-up after treatment), female SCID beige mice, obinutuzumab 10 mg/kg): 758 mm^3; Tumor growth delay (Days): time until relative tumor volume reached again 100% (100% at beginning, Day 10) ([2]; female SCID beige mice, obinutuzumab 10 mg/kg, venetoclax 100 mg/kg po, RG6146 30 mg/kg ip): 21 days
